Reference: PubChem BioAssay (NCI)
“And” between values parts separate entries of the source, which are not always exact repeats. Equal values may be shown once.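 In this assay, cells in 96-well plates receive the compound at five concentrations for 48 hours. Endpoints are linearly interpolated between the surrounding concentrations. GI50: concentration for 50% inhibition of growth. TGI is the concentration that stops growth completely.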

How the values were obtained:
Experiment in all cases: NCI tumour cell line growth inhibition, 48 h
[1] = test system: NCI-H23 lung
[2] = test system: SF-268 CNS
[3] = test system: MCF7 breast
[4] = test system: RXF 393 renal
[5] = test system: UO-31 renal
[6] = test system: KM12 colon
[7] = test system: MDA-MB-435
[8] = test system: IGROV1 ovarian
[9] = test system: SK-MEL-2 melanoma
[10] = test system: U251 CNS

Compound | GI50 [1] [µM] | TGI [1] | GI50 [2] [µM] | TGI [2] | GI50 [3] [µM] | TGI [3] | GI50 [4] [µM] | TGI [4] | GI50 [5] [µM] | TGI [5] | GI50 [6] [µM] | TGI [6] | GI50 [7] [µM] | TGI [7] | GI50 [8] [µM] | TGI [8] | GI50 [9] [µM] | TGI [9] | GI50 [10] [µM] | TGI [10]
C=C1CCC2C(/C=C(\C)CCC1O)OC(=O)C2C (centres undefined) | > 100 | > 100 µM | > 100 | > 100 µM | 82.2 | > 100 µM | 23.2 | > 100 µM | > 100 | > 100 µM | > 100 | > 100 µM | > 100 | > 100 µM | > 100 | > 100 µM | > 100 | > 100 µM | > 100 | > 100 µM
C#Cc1cnc(=O)n(C2CC(O)C(CO)O2)c1 (centres undefined) | > 100 | > 100 µM | > 100 | > 100 µM | > 100 | > 100 µM | > 100 | > 100 µM | > 100 | > 100 µM | > 100 | > 100 µM | > 100 | > 100 µM | > 100 | > 100 µM | > 100 | > 100 µM | > 100 | > 100 µM
O=c1cc(-c2cccc(F)c2)[nH]c2cc3c(cc12)OCO3 | – | 2.43 µM and 2.83 µM | 0.658 | 75 µM and > 58.1 µM | – | > 100 µM | – | 4.84 µM | 0.47 | 75 µM and > 63.4 µM | 0.332 | – | – | 0.0211 µM | – | > 57 µM | 0.23 | 2.9 µM and 23.6 µM | 0.268 | 9.58 µM and 49.1 µM
CN1CCN(Cc2ccc(C(=O)Nc3cncc(C#Cc4cnc(N)c5ccccc45)c3)cc2C(F)(F)F)CC1 | 1.85 | 4.41 µM | 4.42 | 17.2 µM | 1.67 | 3.39 µM | 1.55 | 3.01 µM | 1.59 | 2.98 µM | 0.788 | 2.48 µM | 1.71 | 3.12 µM | 1.87 | 4.43 µM | 2.29 | 5.2 µM | 1.78 | 3.33 µM
C=C1C(O)C2CCC(C)(C)C(=O)C2=C(CC(C)C)C12CC2 (centres undefined) | 66.7 | > 100 µM | 50.5 | > 100 µM | 35 | > 100 µM | 53.1 | > 100 µM | 66.1 | > 100 µM | 47.1 | > 100 µM | 67.4 | > 100 µM | > 100 | > 100 µM | > 100 | > 100 µM | 43.4 | > 100 µM
Cc1ccc2c(C(C[N+](=O)[O-])c3cccs3)c(-c3ccccc3)[nH]c2c1 (centres undefined) | 1.88 | 8.18 µM | 2.77 | 11.5 µM | 1.41 | 12.8 µM | 1.16 | 4.36 µM | 2.03 | 6.68 µM | 1.54 | 7.25 µM | 0.822 | 2.14 µM | 1.12 | 5.81 µM | 2.24 | 10.5 µM | 1.72 | 7.59 µM
O=C1/C(=C/c2ccc(F)cc2)CCOc2ccc([N+](=O)[O-])cc21 | 1.95 | 4.51 µM | 22.3 | 53.2 µM | 2.91 | 9.29 µM | 1.71 | 3.7 µM | 2.06 | 5.03 µM | 1.83 | 4.4 µM | 1.94 | 7.26 µM | 3.15 | 10.8 µM | 3.17 | 11.6 µM | 40.1 | > 100 µM
COC(=O)C(=O)CC(=O)CCn1ncc(Cl)c(Cl)c1=O | – | 26.9 µM | – | 21.4 µM | 15.6 | > 100 µM | – | 33.9 µM | – | 34.7 µM | – | > 74.5 µM | 3.37 | 12.8 µM | – | 33.4 µM | – | 32.5 µM | – | 22 µM
NC(N)=N/N=C(/c1ccccc1)c1ccc(F)cc1 | 0.403 | 8.94 µM | 0.543 | 14.4 µM | 0.296 | 12.1 µM | 0.291 | 3.54 µM | 0.991 | 14.6 µM | 0.32 | 7.5 µM | 0.203 | 0.834 µM | 0.528 | 13.5 µM | 0.429 | 11.3 µM | 0.337 | 5.21 µM
Oc1ccccc1/C=N/Nc1ccc2ccccc2n1 | 3.36 | > 100 µM | 3.09 | 69.3 µM | 4.92 | 91.5 µM | 18.3 | > 100 µM | 1.17 | 35.6 µM | 3.24 | > 100 µM | 6.42 | > 100 µM | 3.18 | 12.3 µM | 30 | > 100 µM | 4.23 | 31.5 µM
CN1CCN(CC#Cc2cccc(C(=O)c3cnn(-c4ccc(F)cc4)c3N)c2)CC1 | > 25 | > 25 µM | > 25 | > 25 µM | > 25 | > 25 µM | > 25 | > 25 µM | > 25 | > 25 µM | > 25 | > 25 µM | > 25 | > 25 µM | > 25 | > 25 µM | > 25 | > 25 µM | > 25 | > 25 µM
COc1ccc(C(=S)N2CCN(c3cccc(Cl)c3)CC2)cc1 | > 100 | > 100 µM | > 100 | > 100 µM | 75 | > 100 µM | > 100 | > 100 µM | 43.3 | > 100 µM | > 100 | > 100 µM | 62 | > 100 µM | 58.8 | > 100 µM | > 100 | > 100 µM | > 100 | > 100 µM
CCn1c(-c2nonc2N)nc2c(C#CCN)ncc(OCCCN)c21 | > 25 | > 25 µM | > 25 | > 25 µM | > 25 | > 25 µM | > 25 | > 25 µM | > 25 | > 25 µM | > 25 | > 25 µM | > 25 | > 25 µM | > 25 | > 25 µM | > 25 | > 25 µM | > 25 | > 25 µM
COC1(C(=O)N2Cc3nc(Cl)nc(N[C@H](C)c4cc(N)cc(C(F)(F)F)c4)c3C2)CCOCC1 | 19.7 | 72.4 µM | 13.7 | 49.1 µM | 17.5 | 49.3 µM | 15.8 | 43.6 µM | 7.63 | 43.3 µM | 13.6 | 54.3 µM | 18.6 | 41.4 µM | 13.5 | 43.8 µM | 16.7 | 33.6 µM | 14.4 | 37.7 µM
CC(=O)OCC1OC(O[C@@H]2C[C@H]3C(C)(C)[C@H](OC(C)=O)CC[C@]3(C)[C@H]3CCC4=C([C@@H](C)C[C@@H](O)[C@H](O)C(C)(C)O)CC[C@@]4(C)[C@@]32C)C(O)C(O)C1O (some centres undefined) | 16.7 | 30.4 µM | – | 27.7 µM | 2.89 | 11.9 µM | 14.8 | 28 µM | 18.4 | 32.7 µM | 22.6 | 37.1 µM | 16 | 29.5 µM | 16.3 | 30.1 µM | 16.3 | 30.3 µM | – | 28 µM
CN=C(N)N/N=C(\c1ccccc1)c1ccc(Br)cc1 | 0.562 | 11.8 µM | 0.685 | 11.8 µM | 0.268 | 8.33 µM | 0.247 | 0.711 µM | 0.519 | 6.28 µM | 0.334 | 4.4 µM | 0.179 | 0.511 µM | 0.629 | 17.1 µM | 0.359 | 1.97 µM | 0.375 | 2.63 µM
Clc1ccccc1C(c1ccccc1)(c1ccccc1)n1ccnc1 | 2.88 | 13.1 µM and 26.3 µM | 3.92 | 18.8 µM and 35.7 µM | 2.89 | 11.8 µM and 24.7 µM | 2.89 | 9.28 µM and 42.1 µM | 1.45 | 9 µM and 19.8 µM | 2.23 | 6.25 µM and 36.8 µM | 2.4 | 10.1 µM and 47.4 µM | 3.35 | 18.7 µM and 22.9 µM | 2.66 | 7.22 µM and 29.3 µM | 2.48 | 11.8 µM and 49.8 µM
COc1ccc(-c2cc(-c3cc(Cl)ccc3Cl)nc3[nH]c(-c4cc(F)c(Cl)cc4Cl)cc(=O)c23)cc1 | 14.7 | 55.8 µM | > 100 | > 100 µM | 60.9 | > 100 µM | 17.4 | > 100 µM | 59.5 | > 100 µM | 21.7 | 67.1 µM | 6.4 | > 100 µM | 16.5 | > 100 µM | 64.8 | > 100 µM | 21.8 | 61.6 µM
CC(C)(C)c1cc(O)c(O)c(C(C)(C)C)c1 | 3.64 | 14.2 µM | 4.77 | 16.1 µM | 3.45 | 12.8 µM | 4.4 | 13.5 µM | 2.15 | 4.98 µM | 5.57 | 16.9 µM | 3.3 | 14.1 µM | 2.56 | 5.27 µM | 3.74 | 11.4 µM | 4.35 | 16.1 µM
